# Assay results published in patent US10501449B2 (priority 2018, dated 2019).
# Like-named read-outs stand apart in the source and are kept apart here.
# Assays:
# hROMK (human Kir1.1) [1] = molecular target: T1, hROMK (human Kir1.1) (Homo sapiens (Human), UniProt P48048); experiment: cell-based; settings: CHO T-Rex hROMK stable cell line; thallium flux; 10-point concentration response curve; read-out: Human ROMK Th Flux IC50
# hROMK (human Kir1.1) [2] = molecular target: T1, hROMK (human Kir1.1); experiment: cell-based; assay type: cell-based; settings: whole-cell manual patch clamp, CHO T-Rex hROMK stable cell line, voltage step to -120 mV, Ba2+-subtracted hROMK current; read-out: ROMK EP IC50
# Experimental: ROMK Manual Patch Clamp Assay
# Cell culture conditions: Cells were maintained in conditions similar to those for Thallium flux assay. hROMK channel expression was induced by adding 0.6 μg/ml of Doxycycline 16-24 hrs prior to the experiments. On the day of experiment, the cells were dissociated using Versene, resuspended in growth media and plated onto coverslips 15 minutes prior to use.
# Electrophysiology: The coverslip plated with cells was placed in the experiment chamber perfused with bath solution composed of (in mM): 135 NaCl, 5 KCl, 2 CaCl2, 1 MgCl2, 10 HEPES, 5 Glucose (pH 7.4). Patch pipettes with resistance between 2-5 Megaohms, when filled with a solution containing (in mM): 135 KCl, 1 EGTA, 1 MgCl2, 10 HEPES, 2 Na2ATP (pH 7.3), were used to form gigaseals. The cells were voltage clamped at −75 mV in whole-cell configuration using an Axopatch 200b or Multiclamp 700b (Molecular Devices) amplifier controlled by pClamp Software (Molecular Devices). The current was recorded by applying a voltage step to −120 mV every 10 seconds. […] At the end of the experiment, the cells were perfused with bath solution containing 2 mM Ba^2+ to isolate the contribution of hROMK current.
# Data analysis: Raw current values (5 traces each for control, different compound concentration and Ba^2+ treatment groups) were exported from Clampfit into Microsoft Excel where the current remaining after application of Ba^2+ was subtracted from raw current to obtain hROMK specific current.
# hERG channels = hERG channels (Homo sapiens (Human), UniProt Q12809); experiment: hERG Manual Patch Clamp Assay; assay type: cell-based; settings: human, HEK 293 cells stably expressing hERG channels, pH 7.4, 1 uM, read-out: hERG EP % Inh @ 1 uM
# Sequence of hERG channels (Q12809 whole entry): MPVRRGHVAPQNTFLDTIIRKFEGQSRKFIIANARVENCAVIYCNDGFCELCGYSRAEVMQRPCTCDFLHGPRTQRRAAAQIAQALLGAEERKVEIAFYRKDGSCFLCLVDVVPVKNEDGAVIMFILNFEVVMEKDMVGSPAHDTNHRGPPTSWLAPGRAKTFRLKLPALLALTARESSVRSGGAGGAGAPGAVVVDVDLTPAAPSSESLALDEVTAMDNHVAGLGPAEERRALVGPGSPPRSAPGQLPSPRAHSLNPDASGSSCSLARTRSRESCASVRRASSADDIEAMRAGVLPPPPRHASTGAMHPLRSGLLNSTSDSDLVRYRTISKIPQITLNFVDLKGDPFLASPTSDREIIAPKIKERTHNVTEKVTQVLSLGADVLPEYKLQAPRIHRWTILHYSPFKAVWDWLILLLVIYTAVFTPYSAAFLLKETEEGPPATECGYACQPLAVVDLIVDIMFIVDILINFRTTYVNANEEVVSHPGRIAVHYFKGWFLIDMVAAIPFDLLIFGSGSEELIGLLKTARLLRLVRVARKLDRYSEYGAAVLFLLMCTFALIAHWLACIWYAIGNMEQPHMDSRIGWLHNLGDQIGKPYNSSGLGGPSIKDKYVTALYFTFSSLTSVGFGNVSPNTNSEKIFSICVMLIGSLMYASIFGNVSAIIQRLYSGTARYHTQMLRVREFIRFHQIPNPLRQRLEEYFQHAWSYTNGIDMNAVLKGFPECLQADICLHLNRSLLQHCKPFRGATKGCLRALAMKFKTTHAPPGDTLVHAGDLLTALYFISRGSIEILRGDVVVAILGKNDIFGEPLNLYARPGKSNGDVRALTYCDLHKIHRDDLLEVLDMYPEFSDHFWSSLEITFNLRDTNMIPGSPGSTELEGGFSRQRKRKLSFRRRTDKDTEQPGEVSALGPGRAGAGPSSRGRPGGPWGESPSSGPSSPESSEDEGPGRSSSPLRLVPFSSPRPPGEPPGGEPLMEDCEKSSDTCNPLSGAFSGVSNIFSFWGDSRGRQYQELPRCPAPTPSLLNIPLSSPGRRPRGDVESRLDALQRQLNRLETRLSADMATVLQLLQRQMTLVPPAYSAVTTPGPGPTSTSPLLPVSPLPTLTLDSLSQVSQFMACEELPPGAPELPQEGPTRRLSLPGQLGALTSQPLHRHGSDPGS
# T1 sequence (P48048 whole entry): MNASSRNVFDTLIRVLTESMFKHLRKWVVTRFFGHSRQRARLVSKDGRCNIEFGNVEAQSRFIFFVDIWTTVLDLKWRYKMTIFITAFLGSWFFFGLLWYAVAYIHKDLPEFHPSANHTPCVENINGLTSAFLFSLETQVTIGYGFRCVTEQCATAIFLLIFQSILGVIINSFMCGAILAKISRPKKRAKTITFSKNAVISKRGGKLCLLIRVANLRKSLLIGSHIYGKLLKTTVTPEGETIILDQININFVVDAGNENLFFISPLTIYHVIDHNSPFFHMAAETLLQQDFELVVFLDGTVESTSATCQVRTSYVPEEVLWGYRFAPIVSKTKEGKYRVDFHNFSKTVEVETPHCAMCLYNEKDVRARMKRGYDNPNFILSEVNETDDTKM
Compound,IC50 (hROMK (human Kir1.1) [1]),IC50 (hROMK (human Kir1.1) [2]),inhibition at 1 µM (hERG channels)
"COc1cc(-n2cc(CN3C[C@@H](c4ccc5c(c4C)COC5=O)N[C@@H](C)C3)cn2)ncn1 [Example 207-I, 5-((2R,6S)-4-((1-(6-methoxypyrimidin-4-yl)-1H-pyrazol-4-yl)methyl)-6-methylpiperazin-2-yl)-4-methylisobenzofuran-1(3H)-one]",0.053 µM,0.018 µM,10%
"Cc1c([C@@H]2CN(Cc3ccc(-c4ccc5oc(=O)n(C)c5c4)nc3)CCO2)ccc2c1COC2=O [Example 3-I, (R)-3-methyl-5-(5-((2-(4-methyl-1-oxo-1,3-dihydroisobenzofuran-5-yl)morpholino)methyl)pyridin-2-yl)benzo[d]oxazol-2(3H)-one]",0.21 µM,0.044 µM,26%
"COc1cc(-n2cc(CN3CCN[C@H](c4ccc5c(c4C)COC5=O)C3)nn2)nc(C)c1C#N [Example 187-I, (R)-4-methoxy-2-methyl-6-(4-((3-(4-methyl-1-oxo-1,3-dihydroisobenzofuran-5-yl)piperaizn-1-yl)methyl)-1H-1,2,3-triazol-1-yl)nicotinonitrile]",0.043 µM,0.025 µM,11%
"Cc1ncn(-c2ncc(CN3C[C@@H](c4ccc5c(c4C)COC5=O)N[C@@H](C)C3)cn2)c1C [Example 94-I, 5-((2R,6S)-4-((2-(4,5-dimethyl-1H-imidazol-1-yl)pyrimidin-5-yl)methyl)-6-methylpiperazin-2-yl)-4-methylisobenzofuran-1(3H)-one]",0.039 µM,0.014 µM,4.3%
"Cc1cc(-n2ncc(CN3CCN[C@H](c4ccc5c(c4C)COC5=O)C3)n2)nc(C)c1C#N [Example 184-I, (R)-2,4-dimethyl-6-(4-((3-(4-methyl-1-oxo-1,3-dihydroisobenzofuran-5-yl)piperazin-1-yl)methyl)-2H-1,2,3-triaozl-2-yl)nicotinonitrile]",0.03 µM,0.01 µM,6.1%
"CCc1nn(-c2ncc(CN3CCN[C@H](c4ccc5c(c4C)COC5=O)C3)cn2)cc1C#N [Example 228-I, (R)-3-ethyl-1-(5-((3-(4-methyl-1-oxo-1,3-dihydroisobenzofuran-5-yl)piperazin-1-yl)methyl)pyrimidin-2-yl)-1H-pyrazole-4-carbonitrile]",0.014 µM,0.02 µM,16%
"Cc1cn(-c2ccc(CN3CCO[C@H](c4ccc5c(c4C)COC5=O)C3)cn2)cn1 [Example 16-I, (R)-4-methyl-5-(4-((6-(4-methyl-1H-imidazol-1-yl)pyridin-3-yl)methyl)morpholin-2-yl)isobenzofuran-1(3H)-one]",0.033 µM,0.011 µM,7.3%
"Cc1cc(-c2nnc(CN3C[C@@H](c4ccc5c(c4C)COC5=O)N[C@@H](C)C3)o2)ncc1C#N [Example 191-I, 4-methyl-6-(5-(((3S,5R)-3-methyl-5-(4-methyl-1-oxo-1,3-dihydroisobenzofuran-5-yl)piperazin-1-yl)methyl)-1,3,4-oxadiazol-2-yl)nicotinonitrile]",0.029 µM,0.021 µM,4.3%
"Cc1nn(-c2ncc(CN3C[C@@H](c4ccc5c(c4C)COC5=O)N[C@@H](C)C3)cn2)cc1C#N [Example 108-I, 3-methyl-1-(5-(((3S,5R)-3-methyl-5-(4-methyl-1-oxo-1,3-dihydroisobenzofur-an-5-yl)piperazin-1-yl)methyl)pyrimidin-2-yl)-1H-pyrazole-4-carbonitrile]",0.03 µM,0.021 µM,8.7%
"Cc1cc(-c2cc(CN3C[C@@H](c4ccc5c(c4C)COC5=O)N[C@@H](C)C3)no2)ncc1C#N [Example 210-I, 4-methyl-6-(3-(((3S,5R)-3-methyl-5-(4-methyl-1-oxo-1,3-dihydroisobenzofuran-5-yl)piperazin-1-yl)methyl)isoxazol-5-yl)nicotinonitrile]",0.041 µM,0.02 µM,5.2%
"Cc1cc(-n2cc(CN3CC(C)O[C@H](c4ccc5c(c4C)COC5=O)C3)cn2)ncc1C#N (stereo partly drawn) [Example 240-I, 4-methyl-6-(4-(((6R)-2-methyl-6-(4-methyl-1-oxo-1,3-dihydroisobenzofuran-5-yl)morpholino)methyl)-1H-pyrazol-1-yl)nicotinonitrile]",0.042 µM,0.034 µM,8.3%
"COc1cc(-n2ncc(CN3CC(c4ccc5c(c4C)COC5=O)NC(C)(C)C3)n2)ncc1C#N (single isomer, unassigned) [Example 190-I, 6-(4-((3,3-dimethyl-5-(4-methyl-1-oxo-1,3-dihydroisobenzofuran-5-yl)piperazin-1-yl)methyl)-2H-1,2,3-triazol-2-yl)-4-methoxynicotinonitrile]",0.017 µM,0.013 µM,9.1%
"Cc1cc(-n2cc(CN3C[C@@H](c4ccc5c(c4C)COC5=O)N[C@@H](C)C3)cn2)ncc1C#N [Example 105-I, 4-methyl-6-(4-(((3S,5R)-3-methyl-5-(4-methyl-1-oxo-1,3-dihydroisobenzofur-an-5-yl)piperazin-1-yl)methyl)-1H-pyrazol-1-yl)nicotinonitrile]",0.026 µM,0.011 µM,9.7%
"Cc1cc(-c2nnc(CN3CC(c4ccc5c(c4C)COC5=O)NC(C)(C)C3)o2)ncc1C#N (single isomer, unassigned) [Example 267-I, 6-(5-((3,3-dimethyl-5-(4-methyl-1-oxo-1,3-dihydroisobenzofuran-5-yl)piperazin-1-yl)methyl)-1,3,4-oxadiazol-2-yl)-4-methylnicotinonitrile]",0.016 µM,0.017 µM,9.9%
"Cc1nc(-n2cc(CN3CCN[C@H](c4ccc5c(c4C)COC5=O)C3)cn2)ncc1C#N [Example 230-I, (R)-4-methyl-2-(4-((3-(4-methyl-1-oxo-1,3-dihydroisobenzofuran-5-yl)piperazin-1-yl)methyl)-1H-pyrazol-1-yl)pyrimidine-5-carbonitrile]",0.032 µM,0.019 µM,2.2%
"Cc1cc(-n2nc(C)c(CN3CC(c4ccc5c(c4C)COC5=O)NC(C)(C)C3)n2)ncc1C#N (single isomer, unassigned) [Example 175-I, 6-(4-((3,3-dimethyl-5-(4-methyl-1-oxo-1,3-dihydroisobenzofuran-5-yl)piperazin-1-yl)methyl)-5-methyl-2H-1,2,3-triazol-2-yl)-4-methylnicotinonitrile]",0.031 µM,0.017 µM,15%
"COc1cc(-n2cnc(CN3C[C@@H](c4ccc5c(c4C)COC5=O)N[C@@H](C)C3)c2)ccc1C#N [Example 101-I, 2-methoxy-4-(4-(((3S,5R)-3-methyl-5-(4-methyl-1-oxo-1,3-dihydroisobenzofur-an-5-yl)piperazin-1-yl)methyl)-1H-imidazol-1-yl)benzonitrile]",0.026 µM,0.034 µM,3%
"Cc1c([C@@H]2CN(Cc3cnn(-c4ccnc(C(F)F)c4)c3)C[C@H](C)N2)ccc2c1COC2=O [Example 127-I, 5-((2R,6S)-4-((1-(2-(difluoromethyl)pyridin-4-yl)-1H-pyrazol-4-yl)methyl)-6-methylpiperazin-2-yl)-4-methylisobenzofuran-1(3H)-one]",0.021 µM,0.014 µM,16%
"Cc1c([C@@H]2CN(Cc3ccc(-n4cnc(C#N)c4)nc3)CCN2)ccc2c1COC2=O [Example 65-I, (R)-1-(5-((3-(4-methyl-1-oxo-1,3-dihydroiso-benzofuran-5-yl)piper-azin-1-yl)methyl)pyri-din-2-yl)-1H-imidazole-4-carbonitrile]",0.014 µM,0.0098 µM,21%
"Cc1ncn(-c2ncc(CN3CCN[C@H](c4ccc5c(c4C)COC5=O)C3)cn2)c1C [Example 148-I, (R)-5-(4-((2-(4,5-dimethyl-1H-imidazol-1-yl)pyrimidin-5-yl)methyl)piperazin-2-yl)-4-methylisobenzofuran-1(3H)-one]",0.027 µM,0.019 µM,8.8%
"COc1cc(-n2cnc(CN3C[C@@H](c4ccc5c(c4C)COC5=O)N[C@@H](C)C3)c2)ncc1C#N [Example 97-I, 4-methoxy-6-(4-(((3S,5R)-3-methyl-5-(4-methyl-1-oxo-1,3-dihydroisobenzofur-an-5-yl)piperazin-1-yl)methyl)-1H-imidazol-1-yl)nicotinonitrile]",0.028 µM,0.043 µM,–
"Cc1nc(-n2ncc(CN3C[C@@H](c4ccc5c(c4C)COC5=O)N[C@@H](C)C3)n2)ncc1C#N [Example 100-I, 4-methyl-2-(4-(((3S,5R)-3-methyl-5-(4-methyl-1-oxo-1,3-dihydroisobenzofur-an-5-yl)piperazin-1-yl)methyl)-2H-1,2,3-triazol-2-yl)pyrimidine-5-carbonitrile]",0.04 µM,0.025 µM,3.6%
"Cc1cc(-n2cc(CN3C[C@@H](c4ccc5c(c4C)COC5=O)N[C@@H](C)C3)nn2)ncc1C#N [Example 106-I, 4-methyl-6-(4-(((3S,5R)-3-methyl-5-(4-methyl-1-oxo-1,3-dihydroisobenzofur-an-5-yl)piperazin-1-yl)methyl)-1H-1,2,3-triazol-1-yl)nicotinonitrile]",–,0.01 µM,0.98%
"Cc1c([C@@H]2CN(Cc3cnn(-c4ccc5oc(=O)n(C)c5c4)n3)C[C@H](CO)N2)ccc2c1COC2=O [Example 109-I, 5-(4-(((3R,5R)-3-(hydroxymethyl)-5-(4-methyl-1-oxo-1,3-dihydroisobenzofur-an-5-yl)piperazin-1-yl)methyl)-2H-1,2,3-triazol-2-yl)-3-methylbenzo[d]oxa-zol-2(3H)-one]",–,0.054 µM,3.6%
